{"source": "paper PMC8025945", "about": "(Journal of medicinal chemistry, 2017)", "key": {"HCT-116": {"system": "HCT-116", "conditions": "human, HCT-116 colon tumor cells"}, "OVCAR-3": {"system": "OVCAR-3", "conditions": "human, OVCAR-3 ovarian tumor cells"}, "DU-145": {"system": "DU-145", "conditions": "human, DU-145 prostate tumor cells"}, "recombinant Top1": {"target": "T1, recombinant Top1 (Homo sapiens, UniProt P11387)", "T1 sequence (P11387 1-765)": "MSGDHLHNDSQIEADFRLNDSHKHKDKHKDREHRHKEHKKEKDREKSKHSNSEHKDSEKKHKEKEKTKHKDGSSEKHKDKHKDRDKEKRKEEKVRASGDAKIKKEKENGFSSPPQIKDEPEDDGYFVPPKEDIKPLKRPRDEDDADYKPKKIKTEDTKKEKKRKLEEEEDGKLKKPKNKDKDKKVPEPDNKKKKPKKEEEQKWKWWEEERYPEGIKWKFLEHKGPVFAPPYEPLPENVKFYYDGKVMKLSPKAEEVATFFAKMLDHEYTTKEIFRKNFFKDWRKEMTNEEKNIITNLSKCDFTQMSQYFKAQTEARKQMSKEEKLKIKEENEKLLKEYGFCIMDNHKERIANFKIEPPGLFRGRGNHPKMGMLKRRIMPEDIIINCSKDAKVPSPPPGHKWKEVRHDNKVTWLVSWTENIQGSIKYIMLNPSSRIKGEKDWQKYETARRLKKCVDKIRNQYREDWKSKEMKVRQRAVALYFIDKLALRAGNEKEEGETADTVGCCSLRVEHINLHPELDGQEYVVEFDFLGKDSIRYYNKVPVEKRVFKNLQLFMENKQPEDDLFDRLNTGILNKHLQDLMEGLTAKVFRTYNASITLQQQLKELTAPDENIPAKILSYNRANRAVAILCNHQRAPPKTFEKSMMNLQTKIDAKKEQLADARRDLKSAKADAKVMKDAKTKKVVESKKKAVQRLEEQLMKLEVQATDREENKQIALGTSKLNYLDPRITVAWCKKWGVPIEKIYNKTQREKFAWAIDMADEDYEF", "assay": "Top1-mediated DNA cleavage assay", "format": "biochemical", "conditions": "semiquantitative scale relative to 1 μM MJ-III-65 (6) and 1 μM camptothecin (1)"}, "HOP-62": {"system": "HOP-62", "conditions": "human, HOP-62 lung tumor cells"}, "[1]": {"system": "NCI-60 human tumor cell lines", "conditions": "NCI-60 human tumor cell lines (all cell lines tested)"}}}
{"smiles": "O=C1c2ccccc2-c2c1c1ccc(Cl)cc1c(=O)n2CCCn1ccnc1", "note": "[compound 8]", "values": [{"measurement": "GI50", "setting": "HCT-116", "result": 107, "unit": "nM"}, {"measurement": "GI50", "setting": "OVCAR-3", "result": 407, "unit": "nM"}, {"measurement": "GI50", "setting": "DU-145", "result": 309, "unit": "nM"}, {"measurement": "enzyme inhibitory activity Top1 (compound-induced DNA cleavage score)", "setting": "recombinant Top1", "result": "+++"}, {"measurement": "GI50", "setting": "HOP-62", "result": 186, "unit": "nM"}, {"measurement": "GI50", "setting": "[1]", "result": 229, "unit": "nM"}]}
